Structures can show the parent of a compound that is named as a salt.
OC(C1CCCCC1)C(CCN1CC=C(c2cccc3sccc23)CC1)c1ccccn1 (stereo not shown) (as salt: oxalate)
melting point: 80 to 85 °C

Reference: patent publication US6664274B1, “Piperidine derivatives as serotonine reuptake inhibitors” (Eli Lilly and Company, priority 1999, dated 2003)
